Among the data in ChEMBL document CHEMBL1125066, “Phosphoramidate peptide inhibitors of human skin fibroblast collagenase” (J Med Chem, 1990) are Ki values, retold here.

Square brackets hold non-standard residues; d marks the D form. Peptide text beside a SMILES is read from it. * marks the point of attachment. Arg(NO2) = N=C(NCCC[C@H](N)C(=O)O)N[N+](=O)[O-]; X1 = CCOP(=O)(O)N[C@H](C(=O)*)[C@@H](C)CC

Assay [1] addresses T1, Interstitial collagenase (Homo sapiens, UniProt P03956).
T1 sequence (P03956 whole entry): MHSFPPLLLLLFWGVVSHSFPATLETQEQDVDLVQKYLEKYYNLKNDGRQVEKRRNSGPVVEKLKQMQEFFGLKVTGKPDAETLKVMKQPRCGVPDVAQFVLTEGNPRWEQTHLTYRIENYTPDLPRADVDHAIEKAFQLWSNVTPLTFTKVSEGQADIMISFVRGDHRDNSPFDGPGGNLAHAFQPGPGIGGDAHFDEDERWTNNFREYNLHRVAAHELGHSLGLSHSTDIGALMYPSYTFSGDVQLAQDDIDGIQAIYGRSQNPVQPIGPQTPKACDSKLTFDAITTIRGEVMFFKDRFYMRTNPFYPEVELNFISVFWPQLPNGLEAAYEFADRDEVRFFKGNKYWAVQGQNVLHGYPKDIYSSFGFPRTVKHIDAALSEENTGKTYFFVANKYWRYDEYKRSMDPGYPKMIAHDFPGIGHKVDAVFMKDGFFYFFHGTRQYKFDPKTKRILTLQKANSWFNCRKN
The assay is described as follows: Assayed against human skin fibroblast Collagenase using the spectrophotometric assay with the thiol ester substrate at pH 6.5.

The target in a further assay is T2, Collagenase ColA (Bacteria, UniProt P43153).
T2 sequence (P43153 whole entry): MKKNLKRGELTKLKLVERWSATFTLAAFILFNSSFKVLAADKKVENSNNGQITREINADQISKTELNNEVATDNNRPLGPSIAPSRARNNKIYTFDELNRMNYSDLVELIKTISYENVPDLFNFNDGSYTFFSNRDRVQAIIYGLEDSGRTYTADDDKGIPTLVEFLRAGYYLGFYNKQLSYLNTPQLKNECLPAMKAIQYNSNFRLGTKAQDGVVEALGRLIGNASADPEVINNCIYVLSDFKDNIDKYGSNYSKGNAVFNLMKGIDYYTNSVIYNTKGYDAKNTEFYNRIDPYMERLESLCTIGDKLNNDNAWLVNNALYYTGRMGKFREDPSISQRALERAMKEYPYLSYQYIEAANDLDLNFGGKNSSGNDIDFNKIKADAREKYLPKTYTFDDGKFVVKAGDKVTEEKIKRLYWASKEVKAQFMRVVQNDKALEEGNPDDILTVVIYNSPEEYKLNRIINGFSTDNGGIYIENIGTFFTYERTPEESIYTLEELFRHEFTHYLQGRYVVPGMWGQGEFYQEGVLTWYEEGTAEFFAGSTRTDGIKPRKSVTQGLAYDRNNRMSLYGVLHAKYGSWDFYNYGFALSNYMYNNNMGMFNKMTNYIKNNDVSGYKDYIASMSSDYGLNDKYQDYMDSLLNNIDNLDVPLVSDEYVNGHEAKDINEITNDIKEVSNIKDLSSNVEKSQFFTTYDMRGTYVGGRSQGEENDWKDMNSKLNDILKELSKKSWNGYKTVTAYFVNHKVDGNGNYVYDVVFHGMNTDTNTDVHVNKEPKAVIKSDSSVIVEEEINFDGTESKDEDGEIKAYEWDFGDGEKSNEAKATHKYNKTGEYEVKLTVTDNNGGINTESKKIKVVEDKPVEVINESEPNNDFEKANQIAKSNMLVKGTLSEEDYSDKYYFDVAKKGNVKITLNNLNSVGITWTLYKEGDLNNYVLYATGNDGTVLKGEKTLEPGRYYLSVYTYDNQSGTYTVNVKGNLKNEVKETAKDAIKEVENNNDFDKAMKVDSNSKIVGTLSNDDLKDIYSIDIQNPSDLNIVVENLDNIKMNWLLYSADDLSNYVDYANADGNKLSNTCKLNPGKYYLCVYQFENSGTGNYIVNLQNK
The assay is described as follows: Inhibition of bacterial Collagenase. Further details: species or system Hathewaya histolytica.

Assay [2] addresses T1, Interstitial collagenase. As to the kind of experiment: Inhibition of human skin fibroblast Collagenase at pH 7.5.
The target in assay [3] is T3, Angiotensin-converting enzyme (Oryctolagus cuniculus, UniProt P12822).
T3 sequence (P12822 whole entry): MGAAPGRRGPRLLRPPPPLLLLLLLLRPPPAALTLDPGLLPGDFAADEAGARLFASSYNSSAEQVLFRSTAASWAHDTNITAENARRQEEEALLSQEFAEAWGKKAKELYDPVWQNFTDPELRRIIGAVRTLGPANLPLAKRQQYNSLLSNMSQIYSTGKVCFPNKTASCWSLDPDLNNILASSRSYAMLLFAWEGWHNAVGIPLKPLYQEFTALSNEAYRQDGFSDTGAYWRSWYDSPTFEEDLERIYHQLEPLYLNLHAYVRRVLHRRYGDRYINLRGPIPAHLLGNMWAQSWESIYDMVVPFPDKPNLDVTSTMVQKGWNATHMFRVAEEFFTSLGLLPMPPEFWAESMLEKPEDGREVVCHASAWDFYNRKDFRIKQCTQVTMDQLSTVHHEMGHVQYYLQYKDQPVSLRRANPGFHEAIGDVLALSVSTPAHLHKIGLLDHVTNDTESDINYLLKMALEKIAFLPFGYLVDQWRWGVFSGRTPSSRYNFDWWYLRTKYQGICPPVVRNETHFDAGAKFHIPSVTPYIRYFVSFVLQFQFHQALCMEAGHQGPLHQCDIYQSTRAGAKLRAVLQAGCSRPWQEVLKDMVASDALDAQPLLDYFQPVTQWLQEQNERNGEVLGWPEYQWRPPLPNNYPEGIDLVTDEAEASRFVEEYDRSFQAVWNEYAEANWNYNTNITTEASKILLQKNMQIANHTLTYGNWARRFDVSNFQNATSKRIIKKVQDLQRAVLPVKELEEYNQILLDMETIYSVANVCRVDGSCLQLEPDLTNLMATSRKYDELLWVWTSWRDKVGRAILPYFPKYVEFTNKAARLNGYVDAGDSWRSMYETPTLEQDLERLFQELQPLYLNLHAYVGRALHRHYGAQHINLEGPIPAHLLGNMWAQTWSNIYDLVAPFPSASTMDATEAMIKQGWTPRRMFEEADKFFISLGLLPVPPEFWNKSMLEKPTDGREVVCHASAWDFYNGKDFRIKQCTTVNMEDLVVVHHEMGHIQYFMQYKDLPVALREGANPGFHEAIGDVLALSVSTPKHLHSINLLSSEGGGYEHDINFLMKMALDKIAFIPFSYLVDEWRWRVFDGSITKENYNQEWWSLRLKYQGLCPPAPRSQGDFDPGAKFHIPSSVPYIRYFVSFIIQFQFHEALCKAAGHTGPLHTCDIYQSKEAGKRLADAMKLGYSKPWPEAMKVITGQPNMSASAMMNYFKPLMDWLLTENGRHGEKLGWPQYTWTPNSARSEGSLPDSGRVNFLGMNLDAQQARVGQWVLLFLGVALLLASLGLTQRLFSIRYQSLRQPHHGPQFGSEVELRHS
The assay is described as follows: Inhibitory activity against Angiotensin I converting enzyme.

As for `CCOP(=O)(O)N[C@H](C(=O)NC(Cc1ccc(OC)cc1)C(=O)NC)[C@@H](C)CC` (some centres undefined), the Ki (commonly the dissociation constant of the complex between target and ligand, obtained from inhibition or displacement) on Interstitial collagenase [1] is 31 µM.

Take `CCOP(=O)(O)N[C@H](C(=O)NC(Cc1c[nH]c2ccccc12)C(=O)NC)[C@@H](C)CC` (some centres undefined): the Ki on Collagenase ColA was more than 5000 µM; on Interstitial collagenase [2], 0.9 µM; on Interstitial collagenase [1], 1.5 µM.

`CCOP(=O)(O)N[C@H](C(=O)NC(Cc1ccc(OCc2ccccc2)cc1)C(=O)NC)[C@@H](C)CC` (some centres undefined): the Ki on Interstitial collagenase [1] came to 18 µM.

Turning to `CCOP(=O)(O)N[C@H](C(=O)NC(Cc1ccc(OCc2ccccc2)cc1)C(=O)NCC(=O)O)[C@@H](C)CC` (some centres undefined), the figures for the Ki (in assay [3]; on Collagenase ColA; on Interstitial collagenase [1]) were 0.2 µM, more than 5 µM and 6.7 µM, respectively.

Consider `CCOP(=O)(O)N[C@H](C(=O)N[C@@H](Cc1ccc(OCC(=O)NCc2ccccc2)cc1)C(=O)NCC(=O)O)[C@@H](C)CC`, for which the Ki on Interstitial collagenase [1] was found to be 16 µM. In other words, the double-digit micromolar range.

`CCOP(=O)(O)N[C@H](C(=O)N[C@@H](Cc1ccc(OCc2cc(Cl)cc(Cl)c2)cc1)C(=O)NCC(=O)O)[C@@H](C)CC`: the Ki worked out at 13 µM at Interstitial collagenase [2] and 5.7 µM at Interstitial collagenase [1].

In the case of `CCOP(=O)(O)N[C@H](C(=O)NC(Cc1ccc(OC2CCCCO2)cc1)C(=O)NCC(=O)O)[C@@H](C)CC` (some centres undefined), the Ki on Interstitial collagenase [1] was found to be 25 µM.

The molecule `CCOP(=O)(O)N[C@H](C(=O)N[C@@H](Cc1ccc(OCC(=O)O)cc1)C(=O)NCC(=O)O)[C@@H](C)CC` came in with a Ki on Interstitial collagenase [1] of 32 µM.

On Interstitial collagenase [1], `CCOP(=O)(O)N[C@H](C(=O)N[C@@H](Cc1ccc(OCC(=O)N[C@@H](CCCCN)C(=O)O)cc1)C(=O)NCC(=O)O)[C@@H](C)CC` returned a Ki of 50 µM. This Ki lies about 1.6-fold higher than the previous one.

In turn, `CCOP(=O)(O)N[C@H](C(=O)N[C@@H](Cc1ccc(OCC(=O)N(Cc2ccccc2)Cc2ccccc2)cc1)C(=O)NCC(=O)O)[C@@H](C)CC` displayed a Ki at Interstitial collagenase [1] of 27 µM.

At Interstitial collagenase [1], `CCOP(=O)(O)N[C@H](C(=O)N[C@@H](Cc1ccc(OCc2ccccc2)cc1)C(=O)N[C@@H](Cc1ccccc1)C(=O)O)[C@@H](C)CC` returned a Ki of 120 µM. This Ki lies about 4.4-fold higher than the previous one.

Turning to `CCOP(=O)(O)N[C@H](C(=O)N[C@@H](Cc1ccc(O)cc1)C(=O)NCC(=O)O)[C@@H](C)CC`, affinity on Interstitial collagenase [1] was put at a Ki of 22 µM. This Ki lies about 5.5-fold lower than the previous one.

At Interstitial collagenase [1], `CCOP(=O)(O)N[C@H](C(=O)N[C@@H](Cc1c[nH]c2ccccc12)C(=O)NCC(=O)O)[C@@H](C)CC` showed a Ki of 13 µM.

For the molecule `CCOP(=O)(O)N[C@H](C(=O)N[C@@H](C)C(=O)NCC(=O)O)[C@@H](C)CC`, the Ki at Interstitial collagenase [2] was found to be 147 µM; on Interstitial collagenase [1], 130 µM.

At Interstitial collagenase [1], `CCOP(=O)(O)N[C@@H](CC(C)C)C(=O)N[C@@H](C)C(=O)NCC(=O)O` came in with a Ki of 140 µM.

The molecule `CCOP(=O)(O)N[C@H](C(=O)N[C@@H](CC(C)C)C(=O)NCC(=O)O)[C@@H](C)CC` returned a Ki at Interstitial collagenase [1] of 49 µM.

On to `CCOP(=O)(O)N[C@H](C(=O)N[C@@H](C)C(=O)NCC(=O)N[C@@H](CC(C)C)C(=O)O)[C@@H](C)CC`, for which the affinity on Interstitial collagenase [1] corresponds to a Ki of 240 µM.

Take `CCOP(=O)(O)N[C@H](C(=O)N[C@@H](Cc1ccccc1)C(=O)NCC(=O)O)[C@@H](C)CC`: the affinity at Interstitial collagenase [1] corresponds to a Ki of 29 µM.

For the molecule `CCOP(=O)(O)N[C@H](C(=O)N[C@@H](Cc1ccc(N)cc1)C(=O)NCC(=O)O)[C@@H](C)CC`, the Ki at Interstitial collagenase [1] was found to be 19 µM.

Molecule `CCOP(=O)(O)N[C@H](C(=O)N[C@@H](C)C(=O)NCC(=O)N[C@@H](CCC(=O)O)C(=O)N[C@@H](CCCN=C(N)N)C(=O)NCC(=O)O)[C@@H](C)CC` (X1-AGERG-OH) showed a Ki at Interstitial collagenase [1] of 403 µM.

As for `CCOP(=O)(O)N[C@H](C(=O)N[C@@H](C)C(=O)NCC(=O)N[C@@H](CCC(=O)O)C(=O)N[C@@H](CCCNC(=N)N[N+](=O)[O-])C(=O)NCC(=O)O)[C@@H](C)CC` (X1-AGE[Arg(NO2)]G-OH), the Ki at Interstitial collagenase [1] stood at 270 µM.

Regarding `CCOP(=O)(O)N[C@H](C(=O)N[C@@H](C)C(=O)NCC(=O)N[C@@H](CCC(N)=O)C(=O)N[C@@H](CCCNC(=N)N)C(=O)NCC(=O)O)[C@@H](C)CC` (X1-AGQRG-OH), the Ki at Interstitial collagenase [1] was determined as 460 µM.

For `CCOP(=O)(O)N[C@H](C(=O)N[C@@H](C)C(=O)NCC(=O)N[C@@H](CCC(N)=O)C(=O)N[C@@H](CCCNC(=N)N[N+](=O)[O-])C(=O)O)[C@@H](C)CC` (X1-AGQ[Arg(NO2)]-OH), the Ki at Interstitial collagenase [1] came out at 1900 µM.
